These compounds were tested against hSTING-R232 (Homo sapiens (Human), UniProt Q86WV6, H232R) (assay: STING differential scanning fluorimetry (DSF) assay, WT human STING). Conditions: WT (R232) human STING aa140-379, net shift in melting temperature.
Sequence of hSTING-R232 (Q86WV6 140-379 H232R): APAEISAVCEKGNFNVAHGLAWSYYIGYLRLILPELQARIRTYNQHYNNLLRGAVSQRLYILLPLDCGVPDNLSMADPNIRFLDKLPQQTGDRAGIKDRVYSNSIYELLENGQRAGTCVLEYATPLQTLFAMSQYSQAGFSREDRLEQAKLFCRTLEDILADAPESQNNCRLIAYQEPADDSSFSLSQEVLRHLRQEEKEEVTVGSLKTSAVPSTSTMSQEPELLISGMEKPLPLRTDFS

SMILES	WT_DSF_hSWAT Tm Shift (° C.)
O=C(O)Cn1c2ccccc2c(=O)c2cccc(Br)c21 [Compound 130]	B (“B” = 0-2° C.)
CC(C)c1ccc2c(=O)c3ccc(Cl)c(Cl)c3n(C)c2c1 [Compound 174]	B (“B” = 0-2° C.)
O=C(O)Cn1c2cc(NC3CCNCC3)ccc2c(=O)c2ccc(Cl)c(Cl)c21 [Compound 143]	B (“B” = 0-2° C.)
Cc1ccc2c(=O)c3ccc(Cl)cc3n([C@H](C)C(=O)O)c2c1 [Compound 179]	A (“A” < 0° C.)
Cc1ccc(-c2ccc3c(=O)c4ccc(Cl)c(Cl)c4n(CC(=O)O)c3c2)cc1 [Compound 154]	C (“C” = 2-7° C,)
COc1c(Cl)ccc2c(=O)c3cc(Br)c(C(C)C)cc3n(CC(=O)O)c12 [Compound 268]	C (“C” = 2-7° C,)
[N-]=[N+]=NCc1c(Cl)ccc2c(=O)c3ccccc3n(CC(=O)O)c12 [Compound 305]	B (“B” = 0-2° C.)

The remaining lines, values ahead:

WT_DSF_hSWAT Tm Shift (° C.)	SMILES
C (“C” = 2-7° C,)	CC1CCC(Nc2ccc3c(=O)c4ccc(Cl)c(Cl)c4n(CC(=O)O)c3c2)CC1 (centres unmarked) [Compound 140]
A (“A” < 0° C.)	Cc1cc2c(cc1F)c(=O)c1ccc(Cl)c(Cl)c1n2CC(=O)O [Compound 135]
C (“C” = 2-7° C,)	O=C(O)Cn1c2cc(NC3CCOCC3)ccc2c(=O)c2ccc(Cl)c(Cl)c21 [Compound 142]
C (“C” = 2-7° C,)	CC(C)(C)CNc1ccc2c(=O)c3ccc(Cl)c(Cl)c3n(CC(=O)O)c2c1 [Compound 138]
D (“D” > 7° C.)	CCSc1c(Cl)ccc2c(=O)c3ccc(C)cc3n(CC(=O)O)c12 [Compound 304]
A (“A” < 0° C.)	C[C@@H](Oc1c(Cl)ccc2c(=O)c3ccccc3n(CC(=O)O)c12)c1ccccc1 [Compound 296]
B (“B” = 0-2° C.)	COc1c(Cl)c(O)cc2c(=O)c3ccccc3n(CC(=O)O)c12 [Compound 315]

What follows are compounds tested against STING protein (Homo sapiens (Human), UniProt Q86WV6, H232R) (assay: Cell based reporter assay of IRF activation (IRF-luciferase), THP1-dual-KI R232). Conditions: read-out: THP1-dual-KI R232_IRF(Luciferase)_Activity Maximum measured (%).
Sequence of STING protein (Q86WV6 whole entry H232R): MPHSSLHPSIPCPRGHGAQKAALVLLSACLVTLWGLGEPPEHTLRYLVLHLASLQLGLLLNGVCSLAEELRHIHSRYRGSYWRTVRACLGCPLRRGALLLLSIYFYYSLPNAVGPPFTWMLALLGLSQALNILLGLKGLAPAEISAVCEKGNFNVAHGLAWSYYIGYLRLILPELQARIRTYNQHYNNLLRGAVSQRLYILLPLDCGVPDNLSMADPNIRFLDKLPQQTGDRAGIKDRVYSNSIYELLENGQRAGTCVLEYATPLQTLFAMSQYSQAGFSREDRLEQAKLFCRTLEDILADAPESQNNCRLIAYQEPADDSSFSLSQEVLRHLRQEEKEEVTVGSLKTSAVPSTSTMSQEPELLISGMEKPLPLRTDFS

SMILES	Emax [%]
CC(C)c1ccc2c(=O)c3ccc(Cl)c(Cl)c3n(C)c2c1 [Compound 174]	< 5
Cc1ccc(-c2ccc3c(=O)c4ccc(Cl)c(Cl)c4n(CC(=O)O)c3c2)cc1 [Compound 154]	5 to 25
COc1c(Cl)ccc2c(=O)c3cc(Br)c(C(C)C)cc3n(CC(=O)O)c12 [Compound 268]	> 50
[N-]=[N+]=NCc1c(Cl)ccc2c(=O)c3ccccc3n(CC(=O)O)c12 [Compound 305]	< 5

More lines, now with the values ahead:

Emax [%]	SMILES
5 to 25	CC1CCC(Nc2ccc3c(=O)c4ccc(Cl)c(Cl)c4n(CC(=O)O)c3c2)CC1 (centres unmarked) [Compound 140]
< 5	Cc1cc2c(cc1F)c(=O)c1ccc(Cl)c(Cl)c1n2CC(=O)O [Compound 135]
< 5	O=C(O)Cn1c2cc(NC3CCOCC3)ccc2c(=O)c2ccc(Cl)c(Cl)c21 [Compound 142]
> 50	CC(C)(C)CNc1ccc2c(=O)c3ccc(Cl)c(Cl)c3n(CC(=O)O)c2c1 [Compound 138]
> 50	CCSc1c(Cl)ccc2c(=O)c3ccc(C)cc3n(CC(=O)O)c12 [Compound 304]
< 5	C[C@@H](Oc1c(Cl)ccc2c(=O)c3ccccc3n(CC(=O)O)c12)c1ccccc1 [Compound 296]
< 5	COc1c(Cl)c(O)cc2c(=O)c3ccccc3n(CC(=O)O)c12 [Compound 315]

What follows are compounds tested against mSTING (Mus musculus, UniProt Q3TBT3) (assay: Radiometric filtration binding competition assay, mSTING). Conditions: not given.

SMILES	IC50 [µM]
COc1c(Cl)ccc2c(=O)c3cc(Br)c(C(C)C)cc3n(CC(=O)O)c12 [Compound 268]	100 to 300
[N-]=[N+]=NCc1c(Cl)ccc2c(=O)c3ccccc3n(CC(=O)O)c12 [Compound 305]	> 300

Second part, the compound after the results:

IC50 [µM]	SMILES
< 20	CCSc1c(Cl)ccc2c(=O)c3ccc(C)cc3n(CC(=O)O)c12 [Compound 304]
> 300	C[C@@H](Oc1c(Cl)ccc2c(=O)c3ccccc3n(CC(=O)O)c12)c1ccccc1 [Compound 296]
> 300	COc1c(Cl)c(O)cc2c(=O)c3ccccc3n(CC(=O)O)c12 [Compound 315]

The compounds below were run against hSTING-WT (Homo sapiens (Human), UniProt Q86WV6, H232R) (assay: Radiometric filtration binding competition assay, hSTING-WT). Conditions: not given.
Sequence of hSTING-WT (Q86WV6 140-379 H232R): as the sequence (Q86WV6 140-379 H232R) above

SMILES	IC50 [µM]
O=C(O)Cn1c2ccccc2c(=O)c2cccc(Br)c21 [Compound 130]	> 300
CC(C)c1ccc2c(=O)c3ccc(Cl)c(Cl)c3n(C)c2c1 [Compound 174]	> 300
O=C(O)Cn1c2cc(NC3CCNCC3)ccc2c(=O)c2ccc(Cl)c(Cl)c21 [Compound 143]	> 300
Cc1ccc2c(=O)c3ccc(Cl)cc3n([C@H](C)C(=O)O)c2c1 [Compound 179]	100 to 300
Cc1ccc(-c2ccc3c(=O)c4ccc(Cl)c(Cl)c4n(CC(=O)O)c3c2)cc1 [Compound 154]	100 to 300
COc1c(Cl)ccc2c(=O)c3cc(Br)c(C(C)C)cc3n(CC(=O)O)c12 [Compound 268]	20 to 100
[N-]=[N+]=NCc1c(Cl)ccc2c(=O)c3ccccc3n(CC(=O)O)c12 [Compound 305]	> 300

Now from value to compound:

IC50 [µM]	SMILES
> 300	CC(C(=O)O)n1c2ccccc2c(=O)c2ccc(Cl)c(Cl)c21 (centres unmarked) [Compound 141]
20 to 100	CC1CCC(Nc2ccc3c(=O)c4ccc(Cl)c(Cl)c4n(CC(=O)O)c3c2)CC1 (centres unmarked) [Compound 140]
100 to 300	Cc1cc2c(cc1F)c(=O)c1ccc(Cl)c(Cl)c1n2CC(=O)O [Compound 135]
100 to 300	O=C(O)Cn1c2cc(NC3CCOCC3)ccc2c(=O)c2ccc(Cl)c(Cl)c21 [Compound 142]
20 to 100	CC(C)(C)CNc1ccc2c(=O)c3ccc(Cl)c(Cl)c3n(CC(=O)O)c2c1 [Compound 138]
20 to 100	CCSc1c(Cl)ccc2c(=O)c3ccc(C)cc3n(CC(=O)O)c12 [Compound 304]
> 300	C[C@@H](Oc1c(Cl)ccc2c(=O)c3ccccc3n(CC(=O)O)c12)c1ccccc1 [Compound 296]
> 300	COc1c(Cl)c(O)cc2c(=O)c3ccccc3n(CC(=O)O)c12 [Compound 315]

What follows are compounds tested against mSTING-R232 (Mus musculus, UniProt Q3TBT3) (assay: STING differential scanning fluorimetry (DSF) assay, mouse STING). Conditions: net shift in melting temperature.
Experimental: A STING DSF assay was performed to determine protein thermostability shift in response to small molecule ligand binding. A STING thermostability shift assay based on differential scanning fluorimetry was used to measure (1) the net shift in melting temperature (ΔTm)between the apo and ligand-bound states of the STING protein and (2) the concentration of the thermal denaturation transition (EC50) as a surrogate measure of binding affinity (K). […] Protein in assay buffer was transferred to a 384 well plate and incubated with the hydrophobic fluorescent dye SYBR Orange. A temperature ramp was applied to the plate and the resulting dye fluorescence was plotted as a function of temperature. The first derivative of this function (dF/dT) was then used to extrapolate the melting temperature of the protein at various concentrations of compound and determine the thermal denaturation profile of a protein/compound complex.
• 1. Protein construct (affinity tag removal vs SUMO-fusion construct) • 2. Protein concentration • 3. Dye concentration • 4. Buffer • 5. Thermal ramp velocity • 6. DMSO tolerance • 7. Compound titration parameters • 8. […] 5 μM purified Target STING Protein • 3. 8 μM Sypro Orange Dye • 4. Buffer: 100 mM NaCl, 30 mM HEPES, pH 7.5 • 5. Thermal Ramp: 0.5° C./min • 6. <1% DMSO • 7. 11 point, 2 fold dilution, duplicate, 300 μM high concentrations • 8.

SMILES	MOUSE DSF_6xHIS-SUMO Tm Shift (° C.)
NC(=O)Cn1c2ccccc2c(=O)c2ccc(Cl)c(Cl)c21 [Compound 146]	B (“B” = 0-5° C.)
O=C(O)Cn1c2ccccc2c(=O)c2cccc(Br)c21 [Compound 130]	C (“C” = 5-15° C.)
CC(C)c1ccc2c(=O)c3ccc(Cl)c(Cl)c3n(C)c2c1 [Compound 174]	B (“B” = 0-5° C.)
O=C(O)Cn1c2cc(NC3CCNCC3)ccc2c(=O)c2ccc(Cl)c(Cl)c21 [Compound 143]	B (“B” = 0-5° C.)
Cc1ccc2c(=O)c3ccc(Cl)cc3n([C@H](C)C(=O)O)c2c1 [Compound 179]	B (“B” = 0-5° C.)
Cc1ccc(-c2ccc3c(=O)c4ccc(Cl)c(Cl)c4n(CC(=O)O)c3c2)cc1 [Compound 154]	D (“D” > 15° C.)

The remaining lines, values ahead:

MOUSE DSF_6xHIS-SUMO Tm Shift (° C.)	SMILES
A (“A” < 0° C.)	CC(C(=O)O)n1c2ccccc2c(=O)c2ccc(Cl)c(Cl)c21 (centres unmarked) [Compound 141]
D (“D” > 15° C.)	CC1CCC(Nc2ccc3c(=O)c4ccc(Cl)c(Cl)c4n(CC(=O)O)c3c2)CC1 (centres unmarked) [Compound 140]
B (“B” = 0-5° C.)	Cc1cc2c(cc1F)c(=O)c1ccc(Cl)c(Cl)c1n2CC(=O)O [Compound 135]
C (“C” = 5-15° C.)	O=C(O)Cn1c2cc(NC3CCOCC3)ccc2c(=O)c2ccc(Cl)c(Cl)c21 [Compound 142]
C (“C” = 5-15° C.)	CC(C)(C)CNc1ccc2c(=O)c3ccc(Cl)c(Cl)c3n(CC(=O)O)c2c1 [Compound 138]

Source: patent publication US11414387B2, “Oxoacridinyl acetic acid derivatives and methods of use” (Stingthera, Inc., priority 2017, dated 2022)
